From patent US20250207131A1, “MODIFIED RNA AGENTS WITH REDUCED OFF-TARGET EFFECT” (Alnylam Pharmaceuticals, Inc., priority 2018, published 2025)
[UNA] = unlocked nucleic acid; r = 2'-OH (RNA)

Assays:
[1] = UV thermal melting temperatures of mUNA 12-mer duplexes; type: physicochemical; conditions: for ΔTm (° C.): relative to unmodified duplex; for Tm (° C.)a / Tm (° C.)b: mUNA 12-mer duplexes, 2.0 μM each strand, pH 7.4
From the text: Values were reported as the maximum of the first derivative and are the average of at least two experiments.

TTR = assay: In vitro on-target activity, primary mouse hepatocytes, transfection, RT-qPCR (TTR siRNAs); type: cell-based
Experimental: Cell culture and transfections: Primary Mouse Hepatocytes (Thermo Fisher Scientific/Gibco) were transfected by adding 4.9 μL of Opti-MEM plus 0.1 μL of Lipofectamine RNAiMax per well (Invitrogen, cat #13778-150) to 5 μL of siRNA duplexes per well into a 384-well plate and incubated at room temperature for 15 minutes. 40 μL of Dulbecco's Modified Eagle Medium (Hep3b) or William's Medium (PMH) containing ˜5 ×10^3 cells were then added to the siRNA mixture. Cells were incubated for 24 hours at 37° C. and then processed for RNA purification. Experiments were performed at 10 nM and 0.1 nM doses of siRNA.
Total RNA isolation using DYNABEADS mRNA Isolation Kit: RNA was isolated using an automated protocol on a BioTek-EL406 platform using DYNABEADs (Invitrogen, cat #61012). Briefly, 70 μL of Lysis/Binding Buffer and 10 μL of lysis buffer containing 3 μL of magnetic beads were added to each well. Plates were incubated on an electromagnetic shaker for 10 minutes at room temperature and then magnetic beads were captured and the supernatant was removed. Bead-bound RNA was then washed 2 times with 150 μL Wash Buffer A and once with Wash Buffer B. Beads were then washed with 150 μL Elution Buffer, re-captured and supernatant removed.
cDNA synthesis using ABI High capacity cDNA reverse transcription kit (Applied Biosystems, cat #4368813): 12 μL of a master mix containing 1.2 μL 10× Buffer, 0.48 μL 25× dNTPs, 1.2 μL 10× Random primers, 0.6 μL Reverse Transcriptase, 0.6 μL RNase inhibitor and 7.92 μL of H2O per reaction was added to RNA isolated above. Plates were sealed, mixed, and incubated on an electromagnetic shaker for 10 minutes at room temperature, followed by 2 h 37° C.
Real time PCR: 2 μL of cDNA were added to a master mix containing 2 μL water, 0.5 μL of either an appropriate GAPDH TaqMan VIC Probe or the target probe and 5 μL Lightcycler 480 probe master mix (Roche, cat #04887301001) per well in a 384 well plate (Roche, cat #04887301001). Real time PCR was done in a LightCycler480 Real Time PCR system (Roche). Each duplex was tested in quadruplicate and data were normalized to cells transfected with a non-targeting control siRNA. To calculate relative fold change, real time data were analyzed using the ΔΔCt method and normalized to assays performed with cells transfected with a non-targeting control siRNA.
RT qPCR for Ttr mRNA quantification:_Primary mouse hepatocytes (PMH) were cultured in Williams E Medium with 10% fetal bovine serum. Transfection of cells using RNAiMAX reagent was done as per the manufacturer's recommended protocol. Thus, cells were thawed immediately prior to transfection and then plated onto 384-well plates with a seed density of ˜5000 cells/well. Pre-incubated lipid/siRNA complex (0.1 μL RNAiMax, siRNA, in 5 μL Opti-MEM for 15 min) was added to a 384-well collagen-coated plate (BioCoat; Corning) and cells were incubated for 20 h at 37° C. in an atmosphere of 5% CO2. Eight 6-fold serial dilutions ranging from 10 to 0.036 nM were used to perform dose response experiments. Media was removed before washing and lysing the cells. Using Dynabeads mRNA isolation kit according to manufacturer's protocol, RNA was extracted and subsequently reverse-transcribed with the ABI high capacity cDNA reverse transcription kit. Quantification was done by real-time PCR, whereby the cDNA (2 μL) was added to a master mix that contained 0.5 μL mouse Gapdh TaqMan Probe, 0.5 μL Ttr TaqMan probes, and 5 μL Lightcycler 480 probe master mix per well in a 384-well 50 plate. Real-time PCR was accomplished in an ABI 7900HT RT-PCR system using the ΔΔCt (RQ) assay. Each duplex and concentration was tested in four biological replicates. To calculate relative fold change, real time data were analyzed using the ΔΔCt method and normalized to assays performed with cells transfected with 10 nM nonspecific siRNA. IC50 values were calculated using a 4-parameter fit model using XLFit.

[2] = test system: luciferase reporter plasmids (psiCHECK2, Renilla luciferase fused to target sequence); assay: Off-target Dual-Glo luciferase reporter assay in COS-7 cells; type: cell-based; conditions: luciferase reporter plasmids co-transfected with siRNAs into COS-7 cells
Experimental: Dual-Glo® Luciferase assay: Cos7 cells (ATCC, Manassas, VA) were grown to near confluence at 37° C. in an atmosphere of 5% CO2 in DMEM (ATCC) supplemented with 10% FBS, before being released from the plate by trypsinization. siRNA and psiCHCECK2 plasmid transfection was carried out by adding 5 μL of siRNA duplexes and 5 μL of psiCHECK2 plasmid per well along with 5 μL of Opti-MEM plus 0.1 μL of Lipofectamine 2000 per well (Invitrogen, Carlsbad CA. cat #13778-150) and then incubated at room temperature for 15 minutes. The mixture was then added to the cells which were re-suspended in 35 ul of fresh complete media. The transfected cells were incubated at 37° C. in an atmosphere of 5% CO2.
48 hours after the siRNAs and psiCHECK2 plasmid were transfected; Firefly (transfection control) and Renilla (fused to target sequence) luciferase were measured. First, media was removed from cells. Then Firefly luciferase activity was measured by adding 20 μL of Dual-Glo® Luciferase Reagent equal to the culture medium volume to each well and mix. The mixture was incubated at room temperature for 30 minutes before luminescence (500 nm) was measured on a Spectramax (Molecular Devices) to detect the Firefly luciferase signal. Renilla luciferase activity was measured by adding 20 μL of room temperature of Dual-Glo® Stop & Glo® Reagent was added to each well and the plates were incubated for 10-15 minutes before luminescence was again measured to determine the Renilla luciferase signal. The Dual-Glo® Stop & Glo® Reagent, quenches the firefly luciferase signal and sustained luminescence for the Renilla luciferase reaction. siRNA activity was determined by normalizing the Renilla signal to the Firefly (control) signal within each well. The magnitude of siRNA activity was then assessed relative to cells that were transfected with the same vector but were not treated with siRNA or were treated with a non-targeting siRNA. All transfections were done at n=2 or greater.

[3] = Rat toxicity study, clinical pathology parameters; conditions: rats, single subcutaneous dose 30 mg/kg, cohort average

## AD-64366.2 (sense UACAGUCUAUGU; antisense ACAUAGACUGUA; RNA, backbone not given here)
[1]; 1x PBS
  ΔTm (° C.): 0.0 °C
  Tm (° C.)a: 52.1 °C
[1]; 8×PBS
  ΔTm (° C.): 0.0 °C
  Tm (° C.)b: 61.1 °C

## AD-64367.2 (sense TACAGTCTATGT; antisense ACATAGACTGTA; DNA, backbone not given here)
[1]; 8×PBS
  ΔTm (° C.): 0.0 °C
  Tm (° C.)b: 49.1 °C
[1]; 1x PBS
  Tm (° C.)a: 43.1 °C

## AD-511227.1 (sense UACAGUCUAUGU; antisense ACAUAGACUGUA; sense: sugars from the 5' end r5 [UNA]1 r6, backbone not given here; antisense: RNA, backbone not given here)
[1]; 1x PBS
  ΔTm (° C.): −16.6 °C
  Tm (° C.)a: 35.5 °C
[1]; 8×PBS
  ΔTm (° C.): −17.5 °C
  Tm (° C.)b: 43.6 °C

## AD-511236.1 (sense TACAGUCTATGT; antisense ACATAGACTGTA; sense: chemistry not given here; antisense: DNA, backbone not given here; sense strand has one mUNA-type uridine (Uun))
[1]; 8×PBS
  ΔTm (° C.): −25.5 °C
  Tm (° C.)b: 23.6 °C
[1]; 1x PBS
  Tm (° C.)a: <30 °C

## AD-511237.1 (sense UACAGUCUAUGU; antisense ACATAGACTGTA; sense: RNA, backbone not given here; antisense: DNA, backbone not given here)
[1]; 8×PBS
  ΔTm (° C.): 0.0 °C
  Tm (° C.)b: 45.1 °C
[1]; 1x PBS
  Tm (° C.)a: 39.1 °C

## AD-511246.1 (sense UACAGUCUAUGU; antisense ACATAGACTGTA; sense: chemistry not given here; antisense: DNA, backbone not given here; sense strand has one mUNA-type uridine (Uun))
[1]; 8×PBS
  ΔTm (° C.): −20.5 °C
  Tm (° C.)b: 24.6 °C
[1]; 1x PBS
  Tm (° C.)a: <30 °C

## AD-511247.1 (sense TACAGTCTATGT; antisense ACAUAGACUGUA; sense: DNA, backbone not given here; antisense: RNA, backbone not given here)
[1]; 8×PBS
  ΔTm (° C.): 0.0 °C
  Tm (° C.)b: 49.1 °C
[1]; 1x PBS
  Tm (° C.)a: 42.1 °C

## AD-511256.1 (sense TACAGUCTATGT; antisense ACAUAGACUGUA; sense: chemistry not given here; antisense: RNA, backbone not given here; sense strand has one mUNA-type uridine (Uun))
[1]; 8×PBS
  ΔTm (° C.): −20.6 °C
  Tm (° C.)b: 28.6 °C
[1]; 1x PBS
  Tm (° C.)a: <30 °C

## Parent (AD-64958): TTR siRNA; passenger a•a•caguGuUCUugcucuauaa(L), guide u•U•auaGagcaagaAcAcuguu•u•u (sense CAGUGUUCUUGCUCUAUAA; antisense AUAGAGCAAGAACACUGUU; phosphorothioate ends, overhangs, chemistry not fully specified)
TTR; TTR (Seq 2), primary mouse hepatocytes, 0.1 nM siRNA
  On-Target mRNA remaining (%) 0.1 nM siRNA: 25.5%
TTR; TTR (Seq 2), primary mouse hepatocytes, 10 nM siRNA
  On-Target mRNA remaining (%) 10 nM siRNA: 2.3%
[2]; TTR (Seq 2)
  IC50: 0.05 nM
[3]
  A/G Avg.: 1.3
  ALB Avg.: 2.9 g/dL
  ALP Avg.: 427 U/L
  ALT Avg.: 108 U/L
  AST Avg.: 332 U/L
  BILI Avg.: 0.48 mg/dL
  CA Avg.: 9.9 mg/dL
  CHOL Avg.: 43 mg/dL
  CREAT Avg.: 0.21 mg/dL
  GLDH Avg.: 140.8 U/L
  GLOB Avg.: 2.27 g/dL
  GLUC Avg.: 124 mg/dL
  K Avg.: 4.9 mmol/L
  NA Avg.: 140 mmol/L
  PHOS Avg.: 9.0 mg/dL
  PROT Avg.: 5 g/dL
  TRIG Avg.: 51 mg/dL
  UREAN Avg.: 18.6 mg/dL

## Parent (AD-125773): TTR siRNA; passenger u•u•cuugCuCUAuaaaccgugu(L), guide a•C•acgguuuauagAgCaagaa•c•a (sense CUUGCUCUAUAAACCGUGU; antisense ACGGUUUAUAGAGCAAGAA; phosphorothioate ends, overhangs, chemistry not fully specified)
TTR; TTR-4, modification at antisense position 7, primary mouse hepatocytes
  IC50: 0.136 nM
[2]; TTR-4, modification at antisense position 7
  IC50: 1.21 nM
